Patent US20260132132A1, “3A,4,5,6-TETRAHYDRO-1 H-PYRAZOLO[3,4-C]PYRIDIN-7(7AH)-ONE DERIVATIVES AS FACTOR XIIA INHIBITORS” (KALVISTA PHARMACEUTICALS LIMITED, priority 2022, published 2026)

Assays:
[1] = target: FXa (Homo sapiens, UniProt P00742); assay: Related protease inhibition: FXa, fluorogenic substrate; type: biochemical; conditions: fluorogenic substrate at Km, 25° C.; H1-H3 = % activity at 40 μM
Experimental: Human serine protease enzyme Plasma Kallikrein, KLK1, FXa, Plasmin, Thrombin and Trypsin were assayed for enzymatic activity using an appropriate fluorogenic substrate at Km concentration, FXIa at fixed substrate concentration of 100 μM and various concentrations of the test compound.

[2] = target: T1, Human Factor XIIa (hFXIIa) (Homo sapiens, UniProt P00748); assay: Determination of Human Factor XIIa (hFXIIa) inhibition, fluorogenic substrate IC50 assay; type: biochemical; conditions: fluorogenic substrate H-DPro-Phe-Arg-AFC at Km, 25° C., read-out: Human FXIIa IC50
T1 construct: purchased Enzyme Research Laboratories
T1 sequence (P00748 373-615 limits assumed): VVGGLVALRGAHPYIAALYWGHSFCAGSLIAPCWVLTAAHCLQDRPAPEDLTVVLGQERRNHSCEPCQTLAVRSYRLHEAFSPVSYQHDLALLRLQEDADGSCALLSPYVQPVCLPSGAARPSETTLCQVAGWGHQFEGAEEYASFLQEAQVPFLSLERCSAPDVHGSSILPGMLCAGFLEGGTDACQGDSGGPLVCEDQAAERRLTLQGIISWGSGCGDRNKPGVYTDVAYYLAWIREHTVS
T1 sequence (P00748 20-372 partner limits assumed): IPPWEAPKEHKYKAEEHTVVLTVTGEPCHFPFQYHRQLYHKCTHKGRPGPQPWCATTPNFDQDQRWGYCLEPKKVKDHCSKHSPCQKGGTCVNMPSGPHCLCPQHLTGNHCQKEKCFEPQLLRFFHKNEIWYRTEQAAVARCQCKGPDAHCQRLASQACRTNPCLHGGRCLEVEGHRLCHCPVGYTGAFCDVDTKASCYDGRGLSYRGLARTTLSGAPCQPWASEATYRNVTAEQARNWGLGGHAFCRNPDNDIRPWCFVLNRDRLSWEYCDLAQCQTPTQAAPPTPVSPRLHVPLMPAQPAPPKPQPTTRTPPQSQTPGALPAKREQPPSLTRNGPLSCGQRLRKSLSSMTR
Experimental: Determination of Human Factor XIIa (hFXIIa) inhibition
The Km for the cleavage of the substrate by hFXIIa was determined by standard transformation of the Michaelis-Menten equation, with subsequent inhibition assays performed at substrate Km concentration.

Sequence of FXa (P00742 235-488 limits assumed): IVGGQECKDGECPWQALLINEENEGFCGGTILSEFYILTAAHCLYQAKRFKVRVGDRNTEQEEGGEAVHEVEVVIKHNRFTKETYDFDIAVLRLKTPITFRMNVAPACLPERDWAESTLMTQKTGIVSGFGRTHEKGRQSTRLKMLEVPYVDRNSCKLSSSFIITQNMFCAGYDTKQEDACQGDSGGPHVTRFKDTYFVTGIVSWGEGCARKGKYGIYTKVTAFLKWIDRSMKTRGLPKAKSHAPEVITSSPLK
Sequence of FXa (P00742 41-179 partner limits assumed): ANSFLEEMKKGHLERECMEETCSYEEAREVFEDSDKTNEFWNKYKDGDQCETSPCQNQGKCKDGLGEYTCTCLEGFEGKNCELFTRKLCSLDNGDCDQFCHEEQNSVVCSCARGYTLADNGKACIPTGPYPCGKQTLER

SMILES	IC50 [1] [µM]	IC50 [2] [nM]
Cc1c(Cl)c(CNC(=O)c2nn(-c3cccc(Cl)c3)c3c2CCN(c2ccc4c(c2)C(=O)N(CC(N)=O)CCO4)C3=O)nn1C [Example 1394, 6-(4-(2-amino-2-oxoethyl)-5-oxo-2,3,4,5-tetrahydrobenzo[f][1,4]oxazepin-7-yl)-N-((4-chloro-1,5-dimethyl-1H-pyrazol-3-yl)methyl)-1-(3-chlorophenyl)-7-oxo-4,5,6,7-tetrahydro-1H-pyrazolo[3,4-c]pyridine-3-carboxamide]	0.3 to 1	10 to 100
COc1cc(CNC(=O)c2nn(-c3cccc(Cl)c3)c3c2CCN(c2ccc4c(c2)C(=O)N(C)CC4)C3=O)nn1C [Example 1186, 1-(3-chlorophenyl)-N-((5-methoxy-1-methyl-1H-pyrazol-3-yl)methyl)-6-(2-methyl-1-oxo-1,2,3,4-tetrahydroisoquinolin-7-yl)-7-oxo-4,5,6,7-tetrahydro-1H-pyrazolo[3,4-c]pyridine-3-carboxamide]	10 to 40	100 to 300
CN1CCc2ccc(N3CCc4c(C(=O)NCc5ccccc5)nn(-c5cccc(Cl)c5)c4C3=O)cc2C1 [Example 1005, N-benzyl-1-(3-chlorophenyl)-6-(2-methyl-1,2,3,4-tetrahydroisoquinolin-7-yl)-7-oxo-4,5,6,7-tetrahydro-1H-pyrazolo[3,4-c]pyridine-3-carboxamide]	3 to 10	10 to 100
Cc1cc(CNC(=O)c2nn(-c3cccc(Cl)c3)c3c2CCN(c2ccc4c(c2)C(=O)N(C)CCC4)C3=O)nn1C [Example 1238, 1-(3-Chlorophenyl)-N-[(1,5-dimethylpyrazol-3-yl)methyl]-6-(2-methyl-1-oxo-4,5-dihydro-3H-2-benzazepin-8-yl)-7-oxo-4,5-dihydropyrazolo[3,4-c]pyridine-3-carboxamide]	3 to 10	100 to 300
O=C(NCC1CC1)c1nn(-c2cccc(Cl)c2)c2c1CCN(c1ccc3c(c1)CN(CCO)CC31CC1)C2=O [Example 1143, 1-(3-chlorophenyl)-N-(cyclopropylmethyl)-6-(2′-(2-hydroxyethyl)-2′,3′-dihydro-1′H-spiro[cyclopropane-1,4′-isoquinolin]-7′-yl)-7-oxo-4,5,6,7-tetrahydro-1H-pyrazolo[3,4-c]pyridine-3-carboxamide]	3 to 10	100 to 300
CCNC(=O)c1nn(-c2cccc(Cl)c2)c2c1CCN(c1cccc(N3C(=O)CC4CC43)c1)C2=O (stereo not shown) [Example 1367, 1-(3-Chlorophenyl)-N-ethyl-7-oxo-6-(3-(3-oxo-2-azabicyclo[3.1.0]hexan-2-yl)phenyl)-4,5,6,7-tetrahydro-1H-pyrazolo[3,4-c]pyridine-3-carboxamide]	10 to 40	300 to 1000
CCN1CCOc2ccc(N3CCc4c(C(=O)NCC5CC5)nn(-c5cccc(Cl)c5)c4C3=O)cc2C1=O [Example 1374, 1-(3-chlorophenyl)-N-(cyclopropylmethyl)-6-(4-ethyl-5-oxo-2,3,4,5-tetrahydrobenzo[f][1,4]oxazepin-7-yl)-7-oxo-4,5,6,7-tetrahydro-1H-pyrazolo[3,4-c]pyridine-3-carboxamide]	10 to 40	100 to 300
Cc1cc(CNC(=O)c2nn(-c3cccc(Cl)c3)c3c2CCN(c2ccc4c(c2)CN(CCO)CC4)C3=O)[nH]n1 [Example 1077, 1-(3-chlorophenyl)-6-(2-(2-hydroxyethyl)-1,2,3,4-tetrahydroisoquinolin-7-yl)-N-((3-methyl-1H-pyrazol-5-yl)methyl)-7-oxo-4,5,6,7-tetrahydro-1H-pyrazolo[3,4-c]pyridine-3-carboxamide]	3 to 10	10 to 100
O=C(O)CN1CCc2ccc(N3CCc4c(C(=O)NCC5CC5)nn(-c5cccc(Cl)c5)c4C3=O)cc2C1=O [Example 1330, 2-(7-(1-(3-chlorophenyl)-3-((cyclopropylmethyl)carbamoyl)-7-oxo-1,4,5,7-tetrahydro-6H-pyrazolo[3,4-c]pyridin-6-yl)-1-oxo-3,4-dihydroisoquinolin-2(1H)-yl)acetic acid]	> 40	1000 to 3000
CCOC(=O)c1nn(-c2cccc(Cl)c2)c2c(=O)n(-c3ccc4c(c3)C(=O)N(CCO)CC4)c(C)nc12 [Example 3019, ethyl 1-(3-chlorophenyl)-6-(2-(2-hydroxyethyl)-1-oxo-1,2,3,4-tetrahydroisoquinolin-7-yl)-5-methyl-7-oxo-6,7-dihydro-1H-pyrazolo[4,3-d]pyrimidine-3-carboxylate]	3 to 10	100 to 300
CN1CCc2ccc(N3CCc4c(C#N)nn(-c5cccc(Cl)c5)c4C3=O)cc2C1=O [Example 1388, 1-(3-chlorophenyl)-6-(2-methyl-1-oxo-1,2,3,4-tetrahydroisoquinolin-7-yl)-7-oxo-4,5,6,7-tetrahydro-1H-pyrazolo[3,4-c]pyridine-3-carbonitrile]	1 to 3	300 to 1000
Cc1noc(C)c1CNC(=O)c1nn(-c2cccc(Cl)c2)c2c1CCN(c1ccc3c(c1)C(=O)N(C)CC3)C2=O [Example 1185, 1-(3-chlorophenyl)-N-((3,5-dimethylisoxazol-4-yl)methyl)-6-(2-methyl-1-oxo-1,2,3,4-tetrahydroisoquinolin-7-yl)-7-oxo-4,5,6,7-tetrahydro-1H-pyrazolo[3,4-c]pyridine-3-carboxamide]	> 40	300 to 1000
Cc1cccnc1CNC(=O)c1nn(-c2cccc(Cl)c2)c2c1CCN(c1ccc3c(c1)C(=O)N(C)CC3)C2=O [Example 1308, 1-(3-chlorophenyl)-6-(2-methyl-1-oxo-1,2,3,4-tetrahydroisoquinolin-7-yl)-N-((3-methylpyridin-2-yl)methyl)-7-oxo-4,5,6,7-tetrahydro-1H-pyrazolo[3,4-c]pyridine-3-carboxamide]	> 40	300 to 1000
Cc1cc(C)c(CNC(=O)c2nn(-c3cccc(Cl)c3)c3c2CCN(c2ccc4c(c2)C(=O)N(C)CC4)C3=O)cn1 [Example 1189, 1-(3-chlorophenyl)-N-((4,6-dimethylpyridin-3-yl)methyl)-6-(2-methyl-1-oxo-1,2,3,4-tetrahydroisoquinolin-7-yl)-7-oxo-4,5,6,7-tetrahydro-1H-pyrazolo[3,4-c]pyridine-3-carboxamide]	> 40	10 to 100
CN1CCc2ccc(N3CCc4c(C(=O)N[C@H]5CCOC5)nn(-c5cccc(Cl)c5)c4C3=O)cc2C1=O [Example 1336, (S)-1-(3-chlorophenyl)-6-(2-methyl-1-oxo-1,2,3,4-tetrahydroisoquinolin-7-yl)-7-oxo-N-(tetrahydrofuran-3-yl)-4,5,6,7-tetrahydro-1H-pyrazolo[3,4-c]pyridine-3-carboxamide]	> 40	300 to 1000
CCN1CCc2ccc(N3CCc4c(C(=O)NC5COCC5(C)C)nn(-c5cccc(Cl)c5)c4C3=O)cc2C1 (stereo not shown) [Example 1092, 1-(3-chlorophenyl)-N-(4,4-dimethyltetrahydrofuran-3-yl)-6-(2-ethyl-1,2,3,4-tetrahydroisoquinolin-7-yl)-7-oxo-4,5,6,7-tetrahydro-1H-pyrazolo[3,4-c]pyridine-3-carboxamide]	> 40	100 to 300
Cn1cc(Cl)c(CNC(=O)c2nn(-c3cccc(Cl)c3)c3c2CCN(c2ccc4c(c2)CN(CCO)CC4)C3=O)n1 [Example 1155, N-((4-chloro-1-methyl-1H-pyrazol-3-yl)methyl)-1-(3-chlorophenyl)-6-(2-(2-hydroxyethyl)-1,2,3,4-tetrahydroisoquinolin-7-yl)-7-oxo-4,5,6,7-tetrahydro-1H-pyrazolo[3,4-c]pyridine-3-carboxamide]	10 to 40	10 to 100
